Experimental data published in patent US6455057B1, “Skin care composition” (Elizabeth Arden Co., div. of Conopco, Inc., priority 1999, dated 2002).
Values joined by “and” are separate entries in the source; they are usually repeats but may differ in a detail not shown here. Equal values may be shown once.

Experiments:
Format in all cases: cell-based
[1] = system: procollagen-I synthesis in human dermal fibroblasts; test: Dot blot assay for procollagen-I protein in dermal fibroblast conditioned medium; details: vehicle control = 100
Procedure: (§1) Primary human foreskin fibroblasts at passage 2 (P2) were seeded into 12-well plates at 10000 cells/cm^2 and maintained for 24 hours in an atmosphere of 5% carbon dioxide and 4% oxygen in Dulbeccos Modified Eagles Medium (DMEM) supplemented with 10% foetal calf serum. After this time the cells were washed with serum free DMEM and then incubated in fresh serum free DMEM for a further 60 hours. The fibroblast monolayers were then washed again with serum free DMEM. Test reagents and vehicle controls were added to the cells in triplicate in a final volume of 0.4 ml/well fresh serum free DMEM and incubated for a further 24 hours. This fibroblast conditioned medium was either analysed immediately or snap frozen in liquid nitrogen and stored at −70° C. for future analysis. The cells were then counted and data from the dot-blot analysis subsequently standardised to cell number.
(§2) Samples of conditioned medium from dermal fibroblasts treated with vehicle (as a control) or test reagents were supplemented with 20 mM dithiothreitol (1:10 dilution of 200 mM stock solution) and 0.1% sodium dodecylsulphate (1:100 dilution of 10% stock solution), mixed well and then incubated at 75° C. for 2 minutes. A standard for the assay was generated by serial dilution of neat fibroblast conditioned medium from fibroblasts seeded at 10000 cells/cm^2 in a 175 cm^2 flask and maintained in serum free DMEM as described above.
Assay samples were subsequently applied in triplicate to a prewetted sheet of Immobilon-P transfer membrane using the 96-well Bio-Dot Apparatus from Bio-Rad as described in the manufacturers guidelines. Approximately 200 μl of medium was applied per well. The medium was allowed to filter through the membrane under gravity (30 minutes) after which the membrane was washed twice with PBS (200 μl). These PBS washes were allowed to filter through the membrane under gravity (2×15 minutes). The Bio-Dot apparatus was then attached to a vacuum manifold and a third and final PBS wash carried out under suction. The apparatus was disassembled, the membrane removed and quickly cut as required before being placed in blocking buffer overnight at 4° C. […]
Following this the Immobilon strips were again washed with TBS/Tween 20 (3×5 minutes) before being allowed to dry in air at room temperature. […] Dot intensity was assessed by computer-assisted image analysis using the quantification tools in ImageQuant™, standardised to cell number and the effects of various test reagents on decorin and procollagen-I synthesis were determined relative to a vehicle treated control value of 100 arbitrary units.

[2] = system: decorin synthesis in human dermal fibroblasts; test: Dot blot assay for decorin protein in dermal fibroblast conditioned medium
Procedure: as §1, §2
Assay samples were subsequently applied in triplicate to a prewetted sheet of Immobilon-P transfer membrane using the 96-well Bio-Dot Apparatus from Bio-Rad as described in the manufacturers guidelines. Approximately 200 μl of medium was applied per well. The medium was allowed to filter through the membrane under gravity (30 minutes) after which the membrane was washed twice with PBS (200 μl). These PBS washes were allowed to filter through the membrane under gravity (2×15 minutes). The Bio-Dot apparatus was then attached to a vacuum manifold and a third and final PBS wash carried out under suction. The apparatus was disassembled, the membrane removed and quickly cut as required before being placed in blocking buffer overnight at 4° C. Membranes prepared for decorin analysis were blocked with 3% (w/v) BSA/0.1% (v/v) Tween 20 in PBS, whilst those for procollagen-I analysis were blocked with 5% (w/v) non fat dried milk powder/0.05% Tween 20 in PBS.
Following this the Immobilon strips were again washed with TBS/Tween 20 (3×5 minutes) before being allowed to dry in air at room temperature. The dried membranes were wrapped in cellophane and exposed to a Molecular Dynamics storage phosphor screen for 16-18 hours. At the end of this time the exposed screen was scanned by a phosphorimager (Molecular Dynamics Phosphorimager SF) using ImageQuant™ software. Dot intensity was assessed by computer-assisted image analysis using the quantification tools in ImageQuant™, standardised to cell number and the effects of various test reagents on decorin and procollagen-I synthesis were determined relative to a vehicle treated control value of 100 arbitrary units.

[3] = system: PGE2 production by human skin fibroblasts; test: Fibroblast PGE2 assay (PMA-induced); details: PMA 10 nM + genistein 1 μM, read-out: % of Inhibition Of Fibroblast PGE2 Levels
Procedure: Primary human foreskin fibroblasts at passage 2 (P2) were seeded into 96-well plates at 10000 cells/well and maintained for 24 hours in an atmosphere of 5% carbon dioxide in Dulbeccos Modified Eagles Medium (DMEM) supplemented with 10% foetal calf serum. The test substances as indicated in the table 2 below were added to fresh cell media (DMEM, supplemented with 10% foetal calf serum) in dimethylsulphoxide and ethanol final concentration<1%) in triplicate and incubated for a further 24 hours. Phorbal myristate acetate (PMA) (Sigma) was added 10 nM to the media and the cells incubated for a further 24 hours. […] The fibroblasts/media were then analysed as described below immediately or snap frozen in liquid nitrogen and stored at −70° C. for future analysis.
Volumes of 50 μl culture medium were taken for PGE2 assay after gently shaking the culture plate. PGE2 levels in the medium were determined with a Biotrak PGE2 immunoassay kit (Amersham, UK). The assay is based on the competition between unlabelled PGE2 in the sample and a fixed quantity of horseradish peroxidase labelled PGE2 for a limited amount of fixed PGE2 specific antibody. Concentrations of unlabelled sample PGE2 are determined according to a standard curve which was obtained at the same time.

[4] = system: ICAM production by human skin fibroblasts; test: Fibroblast ICAM-1 assay (PMA-induced)
Procedure: Intracellular adhesion molecules (ICAM) and PEG2 production by human skin fibroblasts can be induced by the inflammatory stimulus PMA (phorbal myristate acetate). PMA represents an external stressor which induces oxidative stress and inflammatory responses in cells.
Primary human foreskin fibroblasts at passage 2 (P2) were seeded into 96-well plates at 10000 cells/well and maintained for 24 hours in an atmosphere of 5% carbon dioxide in Dulbeccos Modified Eagles Medium (DMEM) supplemented with 10% foetal calf serum. The test substances as indicated in the table 2 below were added to fresh cell media (DMEM, supplemented with 10% foetal calf serum) in dimethylsulphoxide and ethanol final concentration<1%) in triplicate and incubated for a further 24 hours. Phorbal myristate acetate (PMA) (Sigma) was added 10 nM to the media and the cells incubated for a further 24 hours. […] The fibroblasts/media were then analysed as described below immediately or snap frozen in liquid nitrogen and stored at −70° C. for future analysis. The cells were then counted and data from the dot-blot analysis subsequently standardised to cell number.
Media were discarded and cells washed with Dulbecco PBS. To the washed cells, 150 μl 0.1% Triton X-100 (Sigma) was added for 3 minutes to extract ICAM from cell membrane. The extracts were transferred to Eppendoff centrifuge tubes and centrifuged at 1000 g for 2 min to remove cell debris. A volume of 100 μl supernatant was used for ICAM assay. The soluble ICAM-1 was assessed with commercially available immunoenzymometric assay kit (R&D Systems). Concentrations of ICAM-1 in the samples were determined based on parallel running standard curve.

`O=c1c(-c2ccc(O)cc2)coc2cc(O)cc(O)c12` [genistein] showed a Procollagen-I ([1]; 1 μM genistein) of 101.74%, a Decorin ([2]; 1 μM genistein, vehicle control = 100) of 99.75% and an inhibition at 1 µM [3] of 86.2%. It also gave an inhibition at 1 µM ([4]; Homo sapiens, Skin fibroblast, PMA 10 nM + genistein 1 μM) of 30.6%.
With `CCCCCCCCCCC/C=C\CCCCC(=O)O` [PA, petroselinic acid] the Procollagen-I ([1]; 0.01 μM PA) was 117.34%, the Procollagen-I ([1]; 0.1 μM PA) was 90.94% and the Decorin ([2]; 0.01 μM PA, relative to vehicle treated control = 100 arbitrary units, separate experiments) was 102.7% and 100.9% and 95.08% and 93.97% and 93.7% and 91.6%. The Decorin ([2]; 0.1 μM PA, vehicle control = 100) was 100.3%.
`O=C(O)c1cc(O)c(O)c(O)c1` [gallic acid] was tested, and the Decorin ([2]; 0.001 μg/ml gallic acid, vehicle control = 100) was 96.6%.
With `O=c1c(O)c(-c2ccc(O)c(O)c2)oc2cc(O)cc(O)c12` [quercetin] the Decorin ([2]; 1 μM quercetin, vehicle control = 100) was 97.60% and the inhibition at 10 µM ([4]; Homo sapiens, Skin fibroblast, PMA 10 nM + quercetin 10 μM) was 27.8%.
With `O=C(O[C@@H]1Cc2c(O)cc(O)cc2O[C@@H]1c1cc(O)c(O)c(O)c1)c1cc(O)c(O)c(O)c1` [EGCG, epigallocatechin gallate] the Decorin ([2]; 0.005 μg/ml EGCG, vehicle control = 100) was 118.4%, the Decorin ([2]; 0.05 μg/ml EGCG, vehicle control = 100) was 111.7% and the Decorin ([2]; 0.5 μg/ml EGCG, vehicle control = 100) was 120.2%. For the same molecule, the “% of inhibition of fibroblast ICAM production” value ([4]; PMA 10 nM + EGCG 10 μM) was 14.4%.
`O=c1c(-c2ccc(O)cc2)coc2cc(O)ccc12` [daidzein] was tested, and the Procollagen-I ([1]; 0.01 μM daidzein) was 96.04% and the Decorin ([2]; 0.01 μM daidzein, vehicle control = 100) was 92.83%.
